Literature values in US20080161385A1, “Composition Inhibiting Sex Hormone-Binding Globulin” (FUJI OIL COMPANY, LIMITED, priority 2004, published 2008).

System: SHBG
Details: cell test, literature

## O=c1c(-c2ccc(O)cc2)coc2cc(O)cc(O)c12 [genistein]
  Production of SHBG: stimulates production of SHBG
